{
  "source": "patent US12551475B2",
  "about": "“Methods and compositions for treating RNA viral infections” (Model Medicines, Inc., priority 2020, dated 2026)",
  "key": {"adenosine A2 receptors": {"target": "adenosine A2 receptors", "conditions": "cited from earlier work"}, "L1210 cancer cells": {"tested_on": "L1210 cancer cells", "conditions": "cited from earlier work"}, "CEM cancer cells": {"tested_on": "CEM cancer cells", "conditions": "cited from earlier work"}, "MP-2 cancer cells": {"tested_on": "MP-2 cancer cells", "conditions": "cited from earlier work"}, "BxPC-3 cancer cells": {"tested_on": "BxPC-3 cancer cells", "conditions": "cited from earlier work"}, "SARS-CoV-2 [1]": {"tested_on": "SARS-CoV-2", "conditions": "cited from earlier work"}, "HeLa-ACE2 cells [2]": {"tested_on": "HeLa-ACE2 cells", "conditions": "Bakowski et al, 2020; cited from earlier work"}, "[3]": {"target": "T1, LFA-1 interaction with ICAM-1 (Homo sapiens, UniProt P05107+P20701)", "T1 construct": "endogenous in cells; host or cells: Jurkat T cells", "T1 sequence (P20701 26-1170)": "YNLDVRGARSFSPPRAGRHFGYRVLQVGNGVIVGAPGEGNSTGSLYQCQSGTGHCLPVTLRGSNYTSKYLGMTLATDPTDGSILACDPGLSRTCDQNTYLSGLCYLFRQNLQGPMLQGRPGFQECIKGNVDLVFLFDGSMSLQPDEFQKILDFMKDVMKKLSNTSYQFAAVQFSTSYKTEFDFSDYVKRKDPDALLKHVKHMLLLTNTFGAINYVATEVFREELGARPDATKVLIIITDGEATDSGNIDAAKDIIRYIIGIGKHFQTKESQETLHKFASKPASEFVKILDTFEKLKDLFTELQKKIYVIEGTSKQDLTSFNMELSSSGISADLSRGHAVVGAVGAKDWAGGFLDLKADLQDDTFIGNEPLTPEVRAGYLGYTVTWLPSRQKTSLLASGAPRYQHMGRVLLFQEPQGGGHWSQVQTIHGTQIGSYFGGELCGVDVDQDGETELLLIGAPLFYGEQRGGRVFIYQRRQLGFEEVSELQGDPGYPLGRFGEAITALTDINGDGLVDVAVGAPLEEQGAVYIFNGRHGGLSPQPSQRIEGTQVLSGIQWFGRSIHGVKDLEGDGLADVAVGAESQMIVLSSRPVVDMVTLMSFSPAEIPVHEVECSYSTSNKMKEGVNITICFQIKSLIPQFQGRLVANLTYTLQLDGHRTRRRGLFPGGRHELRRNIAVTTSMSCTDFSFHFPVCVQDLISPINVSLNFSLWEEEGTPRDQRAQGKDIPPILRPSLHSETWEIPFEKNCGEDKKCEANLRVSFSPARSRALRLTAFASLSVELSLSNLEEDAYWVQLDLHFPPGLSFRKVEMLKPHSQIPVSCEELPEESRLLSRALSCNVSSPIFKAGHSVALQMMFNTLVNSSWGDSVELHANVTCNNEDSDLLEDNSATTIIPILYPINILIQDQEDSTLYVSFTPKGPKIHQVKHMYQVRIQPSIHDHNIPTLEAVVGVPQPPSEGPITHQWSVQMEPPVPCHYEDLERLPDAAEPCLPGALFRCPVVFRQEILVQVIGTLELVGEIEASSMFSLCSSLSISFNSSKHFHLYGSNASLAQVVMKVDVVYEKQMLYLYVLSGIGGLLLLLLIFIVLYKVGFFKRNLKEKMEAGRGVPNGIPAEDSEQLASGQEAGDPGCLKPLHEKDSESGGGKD", "T1 sequence (P05107 23-769)": "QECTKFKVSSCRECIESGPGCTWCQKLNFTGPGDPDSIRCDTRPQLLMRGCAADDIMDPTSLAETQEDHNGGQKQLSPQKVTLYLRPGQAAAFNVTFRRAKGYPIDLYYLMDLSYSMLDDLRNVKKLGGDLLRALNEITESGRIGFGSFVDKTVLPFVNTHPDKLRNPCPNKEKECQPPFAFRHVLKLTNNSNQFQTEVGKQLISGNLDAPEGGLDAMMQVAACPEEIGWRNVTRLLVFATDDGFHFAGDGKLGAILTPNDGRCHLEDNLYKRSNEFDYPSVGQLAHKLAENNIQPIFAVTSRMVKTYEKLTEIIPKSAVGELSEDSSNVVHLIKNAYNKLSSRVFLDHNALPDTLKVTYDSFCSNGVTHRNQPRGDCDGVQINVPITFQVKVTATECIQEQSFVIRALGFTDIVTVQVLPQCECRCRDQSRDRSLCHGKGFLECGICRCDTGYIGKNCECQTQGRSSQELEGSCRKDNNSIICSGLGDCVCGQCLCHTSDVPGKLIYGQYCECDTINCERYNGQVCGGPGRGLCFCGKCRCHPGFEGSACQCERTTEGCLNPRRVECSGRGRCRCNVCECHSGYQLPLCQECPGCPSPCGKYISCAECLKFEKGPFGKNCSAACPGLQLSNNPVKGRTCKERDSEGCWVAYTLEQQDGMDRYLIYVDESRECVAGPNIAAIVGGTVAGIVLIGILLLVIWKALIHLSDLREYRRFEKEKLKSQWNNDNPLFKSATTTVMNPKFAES", "conditions": "Jurkat T cells; cited from earlier work"}, "[4]": {"tested_on": "adhesion of HuT 78 cells to ICAM-1", "conditions": "cited from earlier work"}, "[5]": {"conditions": "rats; cited from earlier work"}, "[6]": {"conditions": "humans; cited from earlier work"}, "[7]": {"conditions": "in vivo, cited from earlier work"}, "HeLa-ACE2 cells [8]": {"tested_on": "HeLa-ACE2 cells", "assay": "Uninfected host cell cytotoxicity counter screen", "assay_type": "cell-based, human", "conditions": "uninfected HeLa-ACE2, 24 h", "method": "(§1) Compounds were acoustically transferred into 1,536-well clear plates (Greiner Part. No. 789091). HeLa-ACE2 cells were maintained as described for the infection assay and seeded in the assay-ready plates at 400 cells/well in DMEM with 2% FBS and plates were incubated for 24 hours at 37 5% CO2. To assess cell viability, the Image-iT DEAD green reagent (Thermo Fisher) was used according to manufacturer instructions. Cells were fixed with 4% paraformaldehyde, and counterstained with DAPI. Fixed cells were imaged using the ImageXpress Micro Confocal High-Content Imaging System (Molecular Devices) with a 10× objective, and total live cells per well quantified in the acquired images using the Live Dead Application Module (MetaXpress).\n(§2) Image analysis was carried out with MetaXpress (version 6.5.4.532). Primary in vitro screen and the host cell cytotoxicity counter screen data were uploaded to Genedata Screener, Version 16.0.3-Standard. Data were normalized to neutral (DMSO) […] inhibitor controls (2.5 μM remdesivir for antiviral effect and 10 μM puromycin for infected host cell toxicity). For the uninfected host cell cytotoxicity counter screen 40 μM puromycin (Sigma) was used as the positive control. For dose response experiments compounds were tested in technical triplicates on different assay plates and dose curves were fitted with the four parameter Hill Equation. Technical replicate data were analyzed using median condensing."}, "[9]": {"conditions": "mice; cited from earlier work"}, "[10]": {"conditions": "humans; cited from earlier work", "remark": "listed apart in the source"}, "SARS-CoV-2 [11]": {"tested_on": "SARS-CoV-2", "conditions": "for Hill coefficient (Nh): slope of the dose response curve"}, "SARS-CoV-2 [12]": {"tested_on": "SARS-CoV-2", "assay": "microbe, parasite or virus in culture"}, "[13]": {"target": "pig striatum A2A receptor (Sus scrofa, UniProt K9IW67)", "sequence (K9IW67 entry or part of it)": "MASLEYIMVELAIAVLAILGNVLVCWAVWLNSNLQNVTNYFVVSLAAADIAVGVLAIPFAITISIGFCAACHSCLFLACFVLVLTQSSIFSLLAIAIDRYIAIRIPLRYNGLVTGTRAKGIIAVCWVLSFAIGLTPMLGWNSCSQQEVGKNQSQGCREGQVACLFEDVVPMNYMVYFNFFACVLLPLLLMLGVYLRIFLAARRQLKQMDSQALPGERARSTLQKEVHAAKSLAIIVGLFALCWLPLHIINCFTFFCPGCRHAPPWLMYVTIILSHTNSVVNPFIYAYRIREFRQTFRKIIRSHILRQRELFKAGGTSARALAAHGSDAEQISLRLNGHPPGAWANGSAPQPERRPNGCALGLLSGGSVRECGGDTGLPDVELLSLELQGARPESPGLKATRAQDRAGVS", "conditions": "cited from earlier work"}, "[14]": {"conditions": "pig, in vivo; cited from earlier work"}, "[15]": {"conditions": "30 mg/kg and 60 mg/kg oral gavage; cited from earlier work"}, "[16]": {"conditions": "i.v., 28 day, dosed daily; cited from earlier work"}, "SARS-CoV-2 [17]": {"tested_on": "SARS-CoV-2", "conditions": "cited from earlier work", "remark": "listed apart in the source"}, "[18]": {"conditions": "intravenously, cited from earlier work"}, "[19]": {"target": "T2, cytochrome P450 (CYP) 3A4 (Homo sapiens, UniProt P08684)", "T2 construct": "from tissue; host or cells: human liver microsomes", "T2 sequence (P08684 whole entry)": "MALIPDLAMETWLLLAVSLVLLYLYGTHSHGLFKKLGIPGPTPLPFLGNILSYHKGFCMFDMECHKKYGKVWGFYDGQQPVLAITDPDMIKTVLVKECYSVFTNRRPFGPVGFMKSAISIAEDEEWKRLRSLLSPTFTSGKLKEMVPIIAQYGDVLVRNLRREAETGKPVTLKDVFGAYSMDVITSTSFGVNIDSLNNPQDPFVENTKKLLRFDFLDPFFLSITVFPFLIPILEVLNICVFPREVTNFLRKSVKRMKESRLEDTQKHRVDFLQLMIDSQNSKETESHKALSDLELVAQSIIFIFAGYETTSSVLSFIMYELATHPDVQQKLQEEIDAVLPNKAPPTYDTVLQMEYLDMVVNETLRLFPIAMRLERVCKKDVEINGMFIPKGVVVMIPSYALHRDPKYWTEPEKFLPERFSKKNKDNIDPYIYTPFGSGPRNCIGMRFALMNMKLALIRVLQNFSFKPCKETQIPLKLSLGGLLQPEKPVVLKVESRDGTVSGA", "conditions": "human liver microsomes; cited from earlier work"}, "[20]": {"assay": "Uninfected host cell cytotoxicity counter screen", "assay_type": "cell-based, human", "conditions": "human, uninfected HeLa-ACE2 cells; uninfected HeLa-ACE2, 24 h", "method": "as §1, §2"}, "[21]": {"conditions": "dog, IV; cited from earlier work"}, "Vero E6 cells": {"tested_on": "Vero E6 cells", "conditions": "cited from earlier work"}, "[22]": {"conditions": "monkey, IV; cited from earlier work"}, "SARS-CoV-2 [23]": {"tested_on": "SARS-CoV-2", "conditions": "read-out: CPE EC50; cited from earlier work"}, "[24]": {"conditions": "mouse, IV; cited from earlier work"}, "HIV-1": {"tested_on": "HIV-1", "conditions": "cited from earlier work"}, "[25]": {"conditions": "Severe acute respiratory syndrome coronavirus 2, HeLa-ACE2, 24 h"}, "[26]": {"conditions": "Severe acute respiratory syndrome coronavirus 2, HeLa-ACE2, CoV-2/HeLa-ACE2 assay, unit uM"}},
  "note": "Like-named read-outs stand apart in the source and are kept apart here.",
  "data": [
    {"smiles": "CNC(=O)[C@H]1O[C@@H](n2cnc3c(NCc4cccc(I)c4)ncnc32)[C@H](O)[C@@H]1O", "note": "[Piclidenoson, 1-deoxy-1-[6-[[(3-iodophenyl)methyl]amino]-9H-purin-9-yl]-N-methyl-β-D-ribofuranuronamide]", "values": [
      {"measurement": "Ki", "setting": "adenosine A2 receptors", "result": 3.1, "unit": "µM"}
    ]},
    {"smiles": "C[C@H](NP(=O)(OC[C@H]1O[C@@H](n2ccc(N)nc2=O)C(F)(F)[C@@H]1O)Oc1ccccc1)C(=O)OCc1ccccc1", "note": "(stereo partly drawn) [NUC-1031, N-(2′-deoxy-2′,2′-difluoro-P-phenyl-5′-cytidylyl)-L-alanine, phenylmethyl ester]", "values": [
      {"measurement": "IC50", "setting": "L1210 cancer cells", "result": 0.035, "unit": "µM"},
      {"measurement": "IC50", "setting": "CEM cancer cells", "result": 0.03, "unit": "µM"},
      {"measurement": "IC50", "setting": "MP-2 cancer cells", "result": 0.06, "unit": "µM"},
      {"measurement": "IC50", "setting": "BxPC-3 cancer cells", "result": 0.04, "unit": "µM"}
    ]},
    {"smiles": "Nc1nc(Nc2ccc3c(c2)CC[C@@H](N2CCCC2)CC3)nn1-c1cc2c(nn1)-c1ccccc1CCC2", "note": "[R-428]", "values": [
      {"measurement": "synergy score with remdesivir against SARS-CoV-2", "setting": "SARS-CoV-2 [1]; Bakowski et al, 2020", "result": 7.22},
      {"measurement": "EC50", "setting": "SARS-CoV-2 [1]; ReFRAME screen, same methods (Bakowski et al, 2020)", "result": 2.88, "unit": "µM"},
      {"measurement": "CC50", "setting": "HeLa-ACE2 cells [2]", "result": "> 40", "unit": "µM"}
    ]},
    {"smiles": "CS(=O)(=O)c1cccc(C[C@H](NC(=O)c2c(Cl)cc3c(c2Cl)CCN(C(=O)c2ccc4ccoc4c2)C3)C(=O)O)c1", "note": "[Lifitegrast, N-[[2-(6-benzofuranylcarbonyl)-5,7-dichloro-1,2,3,4-tetrahydro-6-isoquinolinyl]carbonyl]-3-(methylsulfonyl)-L-phenylalanine]", "values": [
      {"measurement": "IC50", "setting": "[3]", "result": 0.00298, "unit": "µM"},
      {"measurement": "IC50", "setting": "[4]", "result": 0.009, "unit": "µM"}
    ]},
    {"smiles": "Cc1c(-c2ccc(O)cc2)n(Cc2ccc(OCCN3CCCCCC3)cc2)c2ccc(O)cc12", "note": "[Bazedoxifene]", "values": [
      {"measurement": "safely tolerated dose", "setting": "[5]", "result": 100, "unit": "mg/kg/day"},
      {"measurement": "safely tolerated dose", "setting": "[6]", "result": 20, "unit": "mg/day"}
    ]},
    {"smiles": "Cc1c(-c2ccc(O)cc2)n(Cc2ccc(OCCN3CCCCC3)cc2)c2ccc(O)cc12", "note": "[Pipendoxifene]", "values": [
      {"measurement": "half-life (t ½)", "setting": "[7]; hamster", "result": 30, "unit": "h"},
      {"measurement": "half-life (t 1/2)", "setting": "[7]", "result": "15.8 to 27.3", "unit": "h"},
      {"measurement": "CC50", "setting": "HeLa-ACE2 cells [8]", "result": "> 39.8", "unit": "µM"},
      {"measurement": "safely tolerated dose", "setting": "[9]", "result": "at least 20 mg/kg/day"},
      {"measurement": "safely tolerated dose", "setting": "[10]", "result": "up to 200 mg/daily"},
      {"measurement": "EC90", "setting": "SARS-CoV-2 [11]", "result": 14.3, "unit": "µM"},
      {"measurement": "activity in the HeLa-ACE2 cell-based SARS-CoV-2 assay (in words)", "setting": "SARS-CoV-2 [11]", "result": "demonstrated activity"},
      {"measurement": "EC50", "setting": "SARS-CoV-2 [11]; CoV-2/HeLa-ACE2 assay, unit uM", "result": 8.42, "unit": "µM"},
      {"measurement": "EC10", "setting": "SARS-CoV-2 [11]; derived from the graph", "result": 5.012, "unit": "µM"},
      {"measurement": "Hill coefficient (Nh)", "setting": "SARS-CoV-2 [11]", "result": 4},
      {"measurement": "EC50", "setting": "SARS-CoV-2 [12]; [25]", "result": 8.24, "unit": "µM"},
      {"measurement": "EC50", "setting": "SARS-CoV-2 [12]; [26]", "result": 8.24, "unit": "µM"},
      {"measurement": "EC90", "setting": "SARS-CoV-2 [12]; Severe acute respiratory syndrome coronavirus 2, HeLa-ACE2, read-out: EC90 (Hill equation, Equation I)", "result": 15, "unit": "µM"},
      {"measurement": "EC90", "setting": "SARS-CoV-2 [12]; Severe acute respiratory syndrome coronavirus 2, HeLa-ACE2, read-out: EC90 range from both equations", "result": "14.3 to 15", "unit": "µM"}
    ]},
    {"smiles": "CNC(=O)c1cnn(-c2nc(N)c3ncn([C@@H]4O[C@H](CO)[C@@H](O)[C@H]4O)c3n2)c1", "note": "[Regadenoson, 2-[4-[(methylamino)carbonyl]-1H-pyrazol-1-yl]-adenosine]", "values": [
      {"measurement": "Ki", "setting": "[13]", "result": 0.0011, "unit": "µM"},
      {"measurement": "half-time to reversal", "setting": "[14]", "result": "1.9 to 2.6", "unit": "min"},
      {"measurement": "increase of coronary blood flow", "setting": "[14]", "result": "3.4- to 3.8 fold"}
    ]},
    {"smiles": "CNCc1ccc(-c2cc(-c3nc(-c4ccc(S(=O)(=O)C(C)C)cc4)cnc3N)on2)cc1", "note": "[Berzosertib]", "values": [
      {"measurement": "tolerability (in words)", "setting": "[15]", "result": "no adverse effects or toxicity"},
      {"measurement": "STD10", "setting": "[16]", "result": 30, "unit": "mg/kg/day"},
      {"measurement": "IC50", "setting": "SARS-CoV-2 [17]", "result": "< 0.025", "unit": "µM"},
      {"measurement": "safe and well tolerated clinical dose, no DLTs observed", "setting": "[18]; once-weekly", "result": 480, "unit": "mg/m2"},
      {"measurement": "safe and well tolerated clinical dose, no DLTs observed", "setting": "[18]; twice weekly", "result": 240, "unit": "mg/m2"},
      {"measurement": "enzyme mainly metabolizing the drug", "setting": "[19]", "result": "cytochrome P450 (CYP) 3A4"},
      {"measurement": "half-life (t 1/2)", "setting": "[7]", "result": "about 17 hours"},
      {"measurement": "CC50 at 24 h", "setting": "[20]", "result": 3.14, "unit": "µM"},
      {"measurement": "systemic clearance (CL)", "setting": "[21]", "result": 13, "unit": "mL/min/kg"},
      {"measurement": "CC50", "setting": "Vero E6 cells", "result": 11.2, "unit": "µM"},
      {"measurement": "systemic clearance (CL)", "setting": "[22]", "result": 29, "unit": "mL/min/kg"},
      {"measurement": "activity in the HeLa-ACE2 cell-based SARS-CoV-2 assay (in words)", "setting": "SARS-CoV-2 [11]", "result": "demonstrated activity"},
      {"measurement": "Hill coefficient (Nh)", "setting": "SARS-CoV-2 [11]", "result": 1.485},
      {"measurement": "EC50", "setting": "SARS-CoV-2 [23]", "result": 0.71, "unit": "µM"},
      {"measurement": "systemic clearance (CL)", "setting": "[24]", "result": 82, "unit": "mL/min/kg"},
      {"measurement": "EC50", "setting": "SARS-CoV-2 [12]; [25]", "result": 0.114, "unit": "µM"},
      {"measurement": "EC50", "setting": "SARS-CoV-2 [12]; [26]", "result": 0.114, "unit": "µM"}
    ]},
    {"smiles": "Cc1cccc(C)c1OCC(=O)N[C@@H](Cc1ccccc1)[C@@H](O)C[C@H](Cc1ccccc1)NC(=O)[C@H](C(C)C)N1CCCNC1=O", "note": "[Lopinavir, N-[(1S,3S,4S)-4-[[2-(2,6-dimethylphenoxy)acetyl]amino]-3-hydroxy-5-phenyl-1-(phenylmethyl)pentyl]tetrahydro-aS-(1-methylethyl)-2-oxo-1(2H)-pyrimidineacetamide]", "values": [
      {"measurement": "EC50", "setting": "HIV-1", "result": "0.005 to 0.052", "unit": "µM"}
    ]}
  ]
}
